Biological target: collagenase
Assay: Collagenase inhibition activity (acetylated 14C collagen hydrolysis, Cawston and Barrett)
Assay type: biochemical
Details: 37°, 16 hours, pH 7.5, read-out: IC50 (inhibitor concentration effecting 50% inhibition of the collagenase)
Procedure: The potency of compounds of general formula I to act as inhibitors of collagenase (a metalloprotease involved in tissue degradation) was determined by the procedure of Cawston and Barrett, (Anal. Biochem., 99, 340-345, 1979) and their potency to act as inhibitors of stromelysin was determined using the procedure of Cawston et al (Biochem. J., 195, 159-165 1981), both of which techniques are to be described more fully in the examples and, to the extent that the law allows, are incorporated by reference herein.
The potency of compounds of general formula I to act as inhibitors of collagenase (a metalloprotease involved in tissue degradation) was determined by the procedure of Cawston and Barrett, (Anal. Biochem., 99, 340-345, 1979), hereby incorporated by reference, whereby a 1 mM solution of the inhibitor being tested or dilutions thereof was incubated at 37° for 16 hours with collagen and collagenase (buffered with 25 mM Hepes, pH 7.5 containing 5 mM CaCl2, 0.05% Brij 35 and 0.02% NAN3). The collagen was acetylated ^14C collagen prepared by the method of Cawston and Murphy (Methods in Enzymology, 80, 711, 1981), hereby incorporated by reference. The samples were centrifuged to sediment undigested collagen and an aliquot of the radioactive supernatant removed for assay on a scintillation counter as a measure of hydrolysis. The collagenase activity in the presence of 1 mM inhibitor, or a dilution thereof, was compared to activity in a control devoid of inhibitor and the results reported below as that inhibitor concentration effecting 50% inhibition of the collagenase (IC50).

SMILES	IC50 [µM]
CC(C)C[C@H](CC(=O)NO)C(=O)N[C@@H](Cc1ccccc1)C(=O)N(C)CCO [Example 2, [4-(N-Hydroxyamino)-2R-isobutylsuccinyl]-L-phenylalanine-N-(2-hydroxyethyl)-N-methylamide]	0.2
CC(=O)NCCNC(=O)[C@H](Cc1ccccc1)NC(=O)[C@@H](CC(=O)NO)CC(C)C [Example 4, [4-(N-Hydroxyamino)-2R-isobutylsuccinyl]-L-phenylalanine-N-(2-N-acetylethyl) amide]	0.09
CCSCCNC(=O)[C@H](Cc1ccccc1)NC(=O)[C@@H](CC(=O)NO)CC(C)C [Example 3, [4-(N-Hydroxyamino)-2R-isobutylsuccinyl]-L-phenylalanine-N-(2-ethylthioethyl) amide]	0.02
